# Where a name gives a salt, the structure may show the parent alone.
# Target: α7-subtype of nicotinic receptors (Rattus norvegicus, UniProt Q05941)
# Assay: biochemical
# Assay type: binding
# Chain of α7-subtype of nicotinic receptors (Q05941 23-502): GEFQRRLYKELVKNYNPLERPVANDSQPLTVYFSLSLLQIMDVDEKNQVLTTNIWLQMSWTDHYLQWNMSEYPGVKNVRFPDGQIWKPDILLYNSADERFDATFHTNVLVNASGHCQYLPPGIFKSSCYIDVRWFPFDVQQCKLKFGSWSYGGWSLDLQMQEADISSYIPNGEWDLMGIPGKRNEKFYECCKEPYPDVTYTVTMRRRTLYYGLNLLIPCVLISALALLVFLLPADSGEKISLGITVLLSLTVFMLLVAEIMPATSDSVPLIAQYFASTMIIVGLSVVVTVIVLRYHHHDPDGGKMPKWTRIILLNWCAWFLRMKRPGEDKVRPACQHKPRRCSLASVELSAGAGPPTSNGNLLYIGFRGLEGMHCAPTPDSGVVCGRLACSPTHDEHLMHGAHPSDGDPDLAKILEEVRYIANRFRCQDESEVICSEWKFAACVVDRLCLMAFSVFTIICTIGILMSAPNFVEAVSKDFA
row,SMILES,IC50
1,"c1ccc2c(c1)CC(c1nnc(N3CCN4CCC3CC4)o1)C2 [Compound 1, 4-(5-Indan-2-yl-[1,3,4]oxadiazol-2-yl)-1,4-diaza-bicyclo[3.2.2]nonane fumaric acid salt]",610 nM
2,"c1ccc2c(c1)OC(c1nnc(N3CCN4CCC3CC4)o1)O2 [Compound 2, 4-(5-Benzo[1,3]-dioxol-2-yl-[1,3,4]oxadiazol-2-yl)-1,4-diaza-bicyclo[3.2.2]nonane fumaric acid salt]",750 nM
3,"c1ccc2c(c1)OCC(c1nnc(N3CCN4CCC3CC4)o1)O2 (stereo not drawn) [Compound 3, 4-[5-(2,3-Dihydro-benzo[1,4]dioxin-2-yl)-[1,3,4]oxadiazol-2-yl]-1,4-diaza-bicyclo[3.2.2]nonane fumaric acid salt]",1800 nM

# Source: patent US20110263577A1 (priority 2008, published 2011)
